We go through 2 compounds from patent US8518889B2, “Method of treating cancer with antibodies against long-form leukotriene B4 receptor BLT2” (Korea University Research & Business Foundation, priority 2007, dated 2013).

Test [1] relates to eosinophil. The note with it: 10 μM; cited from earlier work.
For test [2], the system named is 253J-BV bladder cancer cell. The test can be described thus: DNA fragmentation. It counts as cell-based, human. The note with it: 10 μM LY255283 or 1 μM U75302, 48 hr. As for the experimental part:
DNA fragmentation was shown by the harvesting of total cellular DNA. Cells were grown in 100 mm plates to 80% confluence with 10% FBS-supplemented medium. […] Cellular DNA from cells extracted incubating with lysis buffer (1 mM EDTA, 10 mM Tris, 120 mM NaCl, 1% SDS and 100 μg/ml proteinase K, pH 8.0) for 12 hr at 50° C. The lysate was centrifuged for 10 min at 13,000×g to separate the fragment DNA from intact chromatin (nuclear pellet). The supernatant was then extracted twice with phenol/chloroform/isoamyl alcohol and precipitated with absolute ethanol. […] After electrophoresis, gels were stained with ethidium bromide, and the DNA was visualized by UV light. Apoptosis is characterized by fragmentation of chromosomal DNA. The effect of BLT antagonists on DNA damage of bladder cancer cell line was investigated.

Test [3] relates to normal IMR-90 cells. Description: cell growth assay (trypan blue exclusion). It counts as cell-based. The note with it: LY255283 5, 10 μM; U75302 0.5, 1 μM; 24, 48, 72 hr. As to the method: To investigate the effect of BLT2 antagonist, LY255283 and BLT1 antagonist, U75302 on growth of breast cancer, breast cancer cell line, T47D (ER+), MDA-MB-468 (ER−), MDA-MB-453 (ER−) and normal IMR-90 cells were used. Cells were treated with LY255283 and U75302 in a dose-dependent manner and analyzed for cell number using the trypan blue dye exclusion method. Cells were plated at a density of 0.5×10^5 or 5×10^5 cells/well on 12-well plate. After 24 h, cells were incubated in media containing 0.5% serum for 3 hr. Then, cells were treated with U75302 (0.5, 1 μM), LY255283 (5, 10 μM) and incubated at 37° C. for indicated time (24, 48, and 72 hr). To measure the growth of cell, the treated cells were then trypsinized at each time point, and counted by the trypan-blue exclusion method

The subject of test [4] is MDA-MB-231 breast cancer cells. The test can be described thus: Matrigel invasion assay. The note with it: antibody 20 μg/ml, LY255283 10 μM, 48 h. It counts as cell-based, human. As to the method: LF-BLT2 IgG Ab were also tested to determine if they had anti-BLT2-neutralizing effect in a cancer cell invasion assay. The migration of MDA-MB-231 breast cancer cells through Matrigel matrix gel in the presence of anti-LF-BLT2 was examined. The upper chamber of transwells (8.0-μm membrane pores; Costar) were coated with 2.5 μg/ml Matrigel matrix gel (BD Biosciences) and incubated at 37° C. for 2 hr. A total of 5×10^4 cells in 100 μl of medium with 0.5% FBS were added to the upper chamber and allowed to migrate toward the bottom chamber, which contained medium with 10% FBS as a chemoattractant. MDA-MB-231 cells were stopped at 48 hr. Cells on the top surface of the membranes were removed using a cotton swab, and cells on the underside were fixed in methanol and stained with hematoxylin and eosin (H&E).

Test [5] deals with LNCaP cells. Description: Hoechst 33258 staining. It counts as cell-based, human. The note with it: 5 μM, 36 hr. As to the method:
Prostate cancer cells grown in 6-well cluster dishes were stimulated with 5 μM LY255283 for 36 hr in serum free RPMI 1640. The cells were fixed for 10 min with 4% formaldehyde and stained with Hoechst 33258 (50 μg/ml) (Sigma) for 10 min at 37° C. and observed under fluorescence microscopy (Carl Zeiss).

Test [6] deals with MDA-MB-468 cells. Description: DAPI staining, apoptotic cells. It counts as cell-based, human. The note with it: 2, 5, 10 μM, 48 h. As for the experimental part: Cells were grown on sterile coverslips at a density of 7×10^5 cells/plate in 35-mm plate. After 24 h, cells incubated in media containing serum-free for 3 h. Then, cells were treated with U75302 (0.5, 1 μM), LY255283 (5, 10 μM) and incubated at 37° C. for 48 h. Then, cells were fixed with 70% cold-ethanol for 30 min at room temperature, and then washed once with PBS. DAPI (50 ng/ml) was added to the fixed cells, incubated for 20 min at room temperature, and washed with PBS. Cells were mounted and examined by fluorescence microscopy. Apoptotic cells were identified by the condensation and fragmentation of their nuclei. The percentage of apoptotic cells was calculated as the ratio of apoptotic cells to total cells counted. A minimum of 500 cells were counted for each treatment.

In test [7] the test system is MCF-7 cells. The test can be described thus: Western blot analysis of PARP and caspase-9. It counts as cell-based, human. The note with it: LY255283 10 μM, epirubicin 100 ng/ml. On the technique in general: Immunoblotting shows a protein as a band on a membrane.
The subject of test [8] is 253J-BV cells. Description: cell cycle analysis (PI, flow cytometry). The note with it: 48 hr, RPMI 1640 with 0.5% FBS. It counts as cell-based, human. As for the experimental part:
The cells grown in 6-well plate were stimulated with 5 μM and 10 μM LY255283, 1 μM U75302 for 48 h in RPMI 1640 containing 0.5% FBS. The cells which were collected by brief trypsinization were fixed overnight with 70% ethanol at 4° C. The cells were resuspended in PBS containing RNase A (100 μg/ml) and incubated for 30 min at 37° C. The cells were stained with propidium iodide (50 μg/ml) (Sigma). Acquisition and analysis was performed by FACS using Cell Quest Alias software (BD Bioscience). […] Cells were treated with BLT antagonist for 48 hours and the cell cycle population was measured by flow cytometry. In brief, cells were plated in 6 well plate and then treated with LY255283, U75302 for 48 hr. At the end of the treatment, the cells were harvested and then centrifuged. The cells fixed in ice-cold 70% ethanol for 24 hr and centrifuged. The pellet were resuspended in 0.5 ml phosphate-buffered saline (PBS) and incubated with Pl 1 mg/ml treatment for 15 min.
(A flow cytometer gives signals particle by particle.)

In test [9] the test system is 253J-BV cell line. The test can be described thus: Western blot of apoptotic proteins (PARP, Caspase-9, Bax). It counts as cell-based, human. The note with it: 48 hr. As for the experimental part: Cells were washed with cold PBS and cells were scraped into lysis buffer [20 mM Tris-HCl (pH 7.5), 15 OmM NaCl, 0.5% NP-40, 5 mM EDTA, 1% triton X-100 added protease inhibitors] at 4° C. Harvested protein samples were heated at 95° C. for 5 min and then subjected to SDS-PAGE on acrylamide gels, followed by transfer to polyvinylidene difluoride membranes for 90 min at 100 V. The membranes were blocked for 1 h with Tris-buffered saline (TBS) containing 0.05% (vol/vol) Tween 20 plus 5% (wt/vol) nonfat dry milk and then incubated with appropriate antibodies (PARP, 1:2000 dilution, Caspase-9, 1:2000 dilution, Bax 1:2000 dilution, actin, 1:3000 dilution) in 5% nonfat milk overnight at 4° C. Then membrane bound protein-antibody complex incubated for 2 hr with HRP-conjugated secondary antibody before development with an enhanced chemiluminescence kit (Amersham Biosciences, UK). The poly ADP-ribose polymerase (PARP) cleavage have been well established as important indices of apoptosis.

In the case of `CCc1cc(C(C)=O)c(O)cc1OCCCCCC(C)(C)c1nnn[nH]1` [LY255283, 1-[5-ethyl-2-hydroxy-4-[[6-methyl-6-(1H-tetrazol-5-yl)heptyl]oxy]phenyl]-ethanone], the inhibit eosinophil chemotaxis in test [1] is recorded as 80%. The DNA fragmentation result in test [2] is “a ladder like pattern of DNA fragments”. Moreover, the “growth of normal IMR-90 cells” value in test [3] was “did not affect”. The invasion activity result in [4] was “showed inhibitory activity”. In addition, in test [5], the “nuclei condensation or fragmentation (Hoechst 33258)” value is recorded as “Nuclei condensation of fragmentation was observed”. In addition, the “apoptosis (DAPI staining)” value in test [6] is “induces apoptosis via a dose-dependent manner”. Besides, in test [7], the PARP cleavage entry was “PARP cleavage was detectable”. For the same compound, in test [8], the cell cycle entry is given as “arresting cell cycle at sub-G1 in dose dependent manner”. Also, the “pro-apoptotic protein Bax level” value in test [9] (10 μM) is reported as “significant increased”. For the same compound, in test [9], the “apoptosis induction (PARP cleavage)” value was “Apoptosis induction was observed” and the “pro-caspase 9 level” value is “reduction of pro-caspase 9”.

As to `CCCCC/C=C\C[C@@H](O)/C=C/c1cccc(C[C@@H](O)CCCCO)n1` [U75302], the DNA fragmentation entry in [2] is recorded as “not observed DNA fragments”. Besides, in test [3], the “growth of normal IMR-90 cells” value is reported as “had no effect on growth”. Besides, the cell cycle entry in [8] was “not effect”. Moreover, the “level of protein (Western blot) compared with control” value in [9] was “no significant change”.
